Holding throughout (assay type): cell-based
The subject of assay [1] is Marker of Proliferation KI-67 (MKI67) gene expression. In words: MKI67 gene expression in Human Follicle Dermal Papilla Cells (RT-qPCR). The settings on record: sample at 5% in culture medium, HFDPC, 24 hours of incubation. On the procedure: (§1) This assay determined the beneficial effect of the acetyl sh-hexapeptide-5 amide acetate in the reduction of the hair loss in an in vitro assay, using Dermal Papilla cells and analysed through gene expression analysis. In particular, this test determinate the effect of the acetyl sh-hexapeptide-5 amide acetate alone or in combination with tripeptide-10 citrulline after 24 hours of treatment of Human Follicle Dermal Papilla Cells (HFDPC), and through analysis of Fibroblast Growth Factor-7 (FGF7), Insulin-like Growth Factor-1 (IGF1), and Marker of Proliferation KI-67 (MKI67) gene expression, using Quantitative reverse transcription PCR (RT-qPCR) method.
(§2) Analytical equipment: Microscope, incubator, refrigerated centrifuge, statistical analysis software, micropipettes, pipettes, propipette, rack, quantifier Nano-Drop spectrophotometer, laminar flow hood, QuantStudio 5 (Applied Biosystem) Quantitative real-time PCR, vortex, Burker chamber, heating block, thermocycler, and consumables. […]
(§3) Methodology: Cell number and viability were determined using a Burker chamber and Trypan-Blue staining. […]
(§4) After 24 hours of incubation, the medium was removed, and cells were washed with PBS (phosphate buffered saline). […] 2 min (Ramp rate: 4.4° C./sec) 1 cycle PCR Analysis Mode: Quantification 95° C. […] All data were statistically analysed.
A general note: Real-time PCR tracks product formation cycle by cycle.

For assay [2], the system named is Insulin-like Growth Factor-1 (IGF1) gene expression. Nature of the assay: IGF1 gene expression in Human Follicle Dermal Papilla Cells (RT-qPCR). The settings on record: HFDPC, 24 hours of incubation. The procedure:
as §1, §2, §3, §4

The subject of assay [3] is Fibroblast Growth Factor-7 (FGF7) gene expression. Nature of the assay: FGF7 gene expression in Human Follicle Dermal Papilla Cells (RT-qPCR). As to conditions: HFDPC, 24 hours of incubation. On the procedure:
as §1, §2, §3, §4

Turning to “acetyl sh-hexapeptide-5 amide acetate [sample 1]”, in assay [1], the “MK167 gene expression increase compared to the untreated control” value is listed as 100.4±25.2%. Moreover, the entries for the “IGF1 gene expression increase compared to the untreated control” value in assay [2] (sample at 1% in culture medium) and in assay [2] (sample at 5% in culture medium) were 286.3±72.0% and 300.2±45.0%, respectively. In addition, the “Fibroblast Growth Factor-7 (FGF7) expression increase compared to the untreated control” value is 72.3±12.5% in assay [3] (sample at 1% in culture medium) and 108.0±8.3% in assay [3] (sample at 5% in culture medium).

The values are drawn from patent US20240197608A1, “ACETYL SH-HEXAPEPTIDE-5 AMIDE ACETATE FOR USE IN THE TREATMENT OF HAIR LOSS DISORDERS AND AS A HAIR CARE AGENT” (L[…], S.A., priority 2021, published 2024).
